Literature values as cited in patent US20090048261A1, “Pharmaceutical Composition for Treatment of Ocular Hypertension” (priority 2007, published 2009).
Several values for one entry are separate records, joined by “and”; a condition that tells them apart may be missing. Equal entries are not always repeated. Where two headings read alike, the source gives them in different places. Blank lines part the entries; values can stand above or below the molecule they belong to.

Columns and labels:
[1] = tested on: alpha-2-andrenergic receptors; details: compared with clonidine
[2] = tested on: patients with glaucoma or ocular hypertension; details: for difference in effectiveness of brimonidine and dorzolamide: jointly used with topical beta-blockers, Cantor
[3] = tested on: carbonic anhydrase isoenzyme; details: after 4 weeks of bilateral treatment
[4] = tested on: primary open-angle glaucoma patients; details: 30 patients
[5] = topical

Molecule: CC(C)OC(=O)CCC/C=C\C[C@@H]1[C@@H](CC[C@@H](O)CCc2ccccc2)[C@H](O)C[C@@H]1O [latanoprost]
increase in pulsating ocular blood flow [4]: 2.15 µL/s | reduction of intraocular pressure [4]: 3.75 mmHg

Molecule: Brimonidine tartrate
time of peak ocular antihypertensive effects (topical administration of ophthalmic solution): 2 to 3 h

Now from value to molecule, other results behind:

selectivity to alpha-2 adrenergic receptors [1]: higher selectivity
Molecule: Brc1c(NC2=NCCN2)ccc2nccnc12 [brimonidine]
effectiveness in reducing ocular hypertension, brimonidine at 0.2% versus dorzolamide at 2% ([2]; joint therapy with topical beta-blockers, adults with ocular hypertension, Simmons): more effective | additive effect of intraocular pressure reduction ([2]; joint treatment to topical beta-blocker therapy): 5 mmhg and 3.7 mmhg | difference in effectiveness of brimonidine and dorzolamide [2]: no statistically significant differences

binding to plasma proteins (plasma proteins): ~33% | decrease of carbonic anhydrase isoenzyme's activity, of its basic activity [3]: 21%
Molecule: CCN[C@H]1C[C@H](C)S(=O)(=O)c2sc(S(N)(=O)=O)cc21 [dorzolamide]
additional reduction of intraocular pressure when added to topical brimonidine ([2]; dorzolamide at 2%, patients with intraocular pressure of at least 22 mm Hg, 30 days, Ermis): up to 29% | reduction of intraocular pressure when added to timolol ([2]; human, in vivo): 20% | difference in effectiveness of brimonidine and dorzolamide [2]: no statistically significant differences

effect over pupil size or accommodation [5]: little or no effect
Molecule: CC(C)(C)NC[C@H](O)COc1nsnc1N1CCOCC1 [timolol]
time over which ocular antihypertensive effect is maintained (chronic use): up to three years | duration of effect (one drop of timolol at 0.5%): over 24 hours | start of the drug's action (one drop of timolol at 0.5%): after an hour | time of peak effect (one drop of timolol at 0.5%): 2 h | start of the drug's action (one drop, topical ocular instillation): within a single hour | duration of significant reduction of intraocular pressure (single dose): up to 24 hours | systemic effects after absorption [5]: decrease in heart rate, cardiac arrhythmia and bronchial spasm
